In BindingDB's records for patent US20240148821 (Chugai Seiyaku Kabushiki Kaisha, 2024):
Numbered stars: 1 amine (or outer) side, 2 acyl side, 3 side chain; on linkers, the order of the positions; unused ones are H or OH. Bridge positions count the residues as written; N and C are the ends. Square brackets hold non-standard residues; d marks the D form. Peptide text beside a SMILES is read from it. * marks the point of attachment. hPhe(3-Cl-4-CF3) = N[C@@H](CCc1ccc(C(F)(F)F)c(Cl)c1)C(=O)O; hPhe(3-F,4-CF3) = N[C@@H](CCc1ccc(C(F)(F)F)c(F)c1)C(=O)O; X134 = CN([C@@H](Cc1ccc(C#N)nc1)C(=O)[*:2])[*:1]; NMeTyr(3-F) = CN[C@@H](Cc1ccc(O)c(F)c1)C(=O)O; oXylylene = c1ccc(C[*:2])c(C[*:1])c1; NMeGly(cBu) = CN[C@H](C(=O)O)C1CCC1; NMeCha = CN[C@@H](CC1CCCCC1)C(=O)O; cisHyp = O=C(O)[C@@H]1C[C@H](O)CN1; X108 = O=C(CN(c1ccsc1)[*:1])[*:2]; Hyp = O=C(O)[C@@H]1C[C@@H](O)CN1; NMeChg = CN[C@H](C(=O)O)C1CCCCC1; NMeD = CN[C@@H](CC(=O)O)C(=O)O; Benzyl(4-Cl) = Clc1ccc(C*)cc1; NMeL = CN[C@@H](CC(C)C)C(=O)O; NMeA = CN[C@@H](C)C(=O)O; Piperidide = C1CCN(*)CC1; X57 = FC(F)Oc1ccc(C*)cc1; Ac5c = NC1(C(=O)O)CCCC1; X106 = Clc1cccc(C*)c1; Nlys = NCCCCNCC(=O)O; X94 = COc1cccc(C*)c1; Meb = Cc1ccc(C*)cc1; X87 = Clc1ccccc1C*; Sar = CNCC(=O)O

Target: GTPase KRas (G12D) and Son of Sevenless Homolog 1 (SOS) (Homo sapiens, UniProt P01116, G12D)
Experiment: AlphaScreen Assay

Chain of GTPase KRas (G12D) and Son of Sevenless Homolog 1 (SOS) (P01116 whole entry G12D): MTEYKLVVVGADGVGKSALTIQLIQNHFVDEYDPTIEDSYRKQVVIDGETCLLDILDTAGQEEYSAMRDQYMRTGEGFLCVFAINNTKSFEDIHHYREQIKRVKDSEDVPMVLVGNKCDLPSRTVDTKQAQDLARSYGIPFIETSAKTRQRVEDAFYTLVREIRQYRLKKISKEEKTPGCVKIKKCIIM
Chain of GTPase KRas (G12D) and Son of Sevenless Homolog 1 (SOS) (Q07889 whole entry, further chain): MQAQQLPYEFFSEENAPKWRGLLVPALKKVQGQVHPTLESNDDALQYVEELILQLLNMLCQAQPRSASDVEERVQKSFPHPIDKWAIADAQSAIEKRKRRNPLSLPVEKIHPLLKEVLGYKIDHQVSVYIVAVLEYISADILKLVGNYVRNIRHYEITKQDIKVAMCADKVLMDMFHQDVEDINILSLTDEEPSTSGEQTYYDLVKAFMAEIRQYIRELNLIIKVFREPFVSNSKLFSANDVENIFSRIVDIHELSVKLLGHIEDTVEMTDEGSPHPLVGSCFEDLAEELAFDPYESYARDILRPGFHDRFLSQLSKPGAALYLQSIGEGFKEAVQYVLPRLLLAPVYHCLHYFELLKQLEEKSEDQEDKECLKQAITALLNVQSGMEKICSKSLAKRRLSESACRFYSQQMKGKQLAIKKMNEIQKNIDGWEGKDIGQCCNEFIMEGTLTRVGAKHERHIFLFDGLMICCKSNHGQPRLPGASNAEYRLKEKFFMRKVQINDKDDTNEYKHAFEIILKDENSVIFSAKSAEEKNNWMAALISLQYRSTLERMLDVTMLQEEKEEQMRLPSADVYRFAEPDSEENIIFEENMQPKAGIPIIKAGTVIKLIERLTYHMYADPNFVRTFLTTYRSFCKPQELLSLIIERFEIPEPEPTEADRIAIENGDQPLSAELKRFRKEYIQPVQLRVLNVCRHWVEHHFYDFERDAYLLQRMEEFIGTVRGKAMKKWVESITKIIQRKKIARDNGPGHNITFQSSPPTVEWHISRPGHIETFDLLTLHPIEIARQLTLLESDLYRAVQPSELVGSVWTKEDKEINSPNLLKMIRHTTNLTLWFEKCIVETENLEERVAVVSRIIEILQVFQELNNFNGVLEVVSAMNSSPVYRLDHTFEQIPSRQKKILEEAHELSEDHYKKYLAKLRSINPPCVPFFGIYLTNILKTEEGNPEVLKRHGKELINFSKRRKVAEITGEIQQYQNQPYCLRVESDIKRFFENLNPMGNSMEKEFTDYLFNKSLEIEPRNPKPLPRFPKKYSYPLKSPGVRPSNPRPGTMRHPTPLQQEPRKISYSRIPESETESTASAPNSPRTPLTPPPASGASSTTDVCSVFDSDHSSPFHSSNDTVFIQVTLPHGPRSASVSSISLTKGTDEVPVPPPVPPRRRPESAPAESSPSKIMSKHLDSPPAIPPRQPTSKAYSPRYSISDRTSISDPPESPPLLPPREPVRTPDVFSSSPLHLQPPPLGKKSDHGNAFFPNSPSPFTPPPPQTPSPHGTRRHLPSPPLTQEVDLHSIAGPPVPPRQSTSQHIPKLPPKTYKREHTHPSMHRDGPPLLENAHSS

SMILES	IC50
CC[C@H](C)[C@@H]1NC(=O)[C@H](CC(C)C)N(C)C(=O)C[C@@H](C(=O)N2CCCCC2)N(C)C(=O)[C@H](CC(C)C)N(C)C(=O)C2(CCCC2)NC(=O)[C@@H]2C[C@@H](OCc3ccc(C)cc3)CN2C(=O)[C@H](CCc2ccc(C(F)(F)F)c(F)c2)NC(=O)CN(C)C(=O)[C@H](CC2CCCCC2)N(C)C(=O)CN(C)C(=O)CN(C)C1=O [US20240148821, Compound 2130] ([NMeL]I[Sar][Sar][NMeCha][Sar][hPhe(3-F,4-CF3)][Hyp](Meb)[Ac5c][NMeL][NMeD]-Piperidide; lactam N-11)	10 nM
CC[C@H](C)[C@@H]1NC(=O)[C@H](CC(C)C)N(C)C(=O)C[C@@H](C(=O)N2CCCCC2)N(C)C(=O)[C@H](CC(C)C)N(C)C(=O)C2(CCCC2)NC(=O)[C@@H]2C[C@@H](OCc3cccc(OC)c3)CN2C(=O)[C@H](CCc2ccc(C(F)(F)F)c(F)c2)NC(=O)CN(C)C(=O)[C@H](CC2CCCCC2)N(C)C(=O)CN(C)C(=O)CN(C)C1=O [US20240148821, Compound 2131] ([NMeL]I[Sar][Sar][NMeCha][Sar][hPhe(3-F,4-CF3)][Hyp](X94)[Ac5c][NMeL][NMeD]-Piperidide; lactam N-11)	9.8 nM
CC[C@H](C)[C@@H]1NC(=O)[C@H](CC(C)C)N(C)C(=O)C[C@@H](C(=O)N2CCCCC2)N(C)C(=O)[C@H](CC(C)C)N(C)C(=O)C2(CCCC2)NC(=O)[C@@H]2C[C@@H](OCc3cccc(Cl)c3)CN2C(=O)[C@H](CCc2ccc(C(F)(F)F)c(F)c2)NC(=O)CN(C)C(=O)[C@H](CC2CCCCC2)N(C)C(=O)CN(C)C(=O)CN(C)C1=O [US20240148821, Compound 2134] ([NMeL]I[Sar][Sar][NMeCha][Sar][hPhe(3-F,4-CF3)][Hyp](X106)[Ac5c][NMeL][NMeD]-Piperidide; lactam N-11)	9.8 nM
CC[C@H](C)[C@@H]1NC(=O)[C@H](CC(C)C)N(C)C(=O)C[C@@H](C(=O)N2CCCCC2)N(C)C(=O)[C@H](CC(C)C)N(C)C(=O)C2(CCCC2)NC(=O)[C@@H]2C[C@@H](OCc3ccccc3C)CN2C(=O)[C@H](CCc2ccc(C(F)(F)F)c(F)c2)NC(=O)CN(C)C(=O)[C@H](CC2CCCCC2)N(C)C(=O)CN(C)C(=O)CN(C)C1=O [US20240148821, Compound 2139] ([NMeL]I[Sar][Sar][NMeCha][Sar][hPhe(3-F,4-CF3)][Hyp](oXylylene)[Ac5c][NMeL][NMeD]-Piperidide; lactam N-11)	23 nM
CC[C@H](C)[C@@H]1NC(=O)[C@H](CC(C)C)N(C)C(=O)C[C@@H](C(=O)N2CCCCC2)N(C)C(=O)[C@H](CC(C)C)N(C)C(=O)C2(CCCC2)NC(=O)[C@@H]2C[C@H](OCc3ccc(C)cc3)CN2C(=O)[C@H](CCc2ccc(C(F)(F)F)c(F)c2)NC(=O)CN(C)C(=O)[C@H](CC2CCCCC2)N(C)C(=O)CN(C)C(=O)CN(C)C1=O [US20240148821, Compound 2140] ([NMeL]I[Sar][Sar][NMeCha][Sar][hPhe(3-F,4-CF3)][cisHyp](Meb)[Ac5c][NMeL][NMeD]-Piperidide; lactam N-11)	32 nM
CC[C@H](C)[C@@H]1NC(=O)[C@H](C)N(C)C(=O)C[C@@H](C(=O)N2CCCCC2)N(C)C(=O)[C@H](C2CCC2)N(C)C(=O)C2(CCCC2)NC(=O)CN(c2ccsc2)C(=O)[C@H](CCc2ccc(C(F)(F)F)c(Cl)c2)NC(=O)CN(C)C(=O)[C@H](CC2CCCCC2)N(C)C(=O)CN(C)C(=O)CN(C)C1=O [US20240148821, Compound 2149] ([NMeA]I[Sar][Sar][NMeCha][Sar][hPhe(3-Cl-4-CF3)][X108][Ac5c][NMeGly(cBu)][NMeD]-Piperidide; lactam N-11)	4 nM
CC[C@H](C)[C@@H]1NC(=O)[C@H](CC(C)C)N(C)C(=O)C[C@@H](C(=O)N2CCCCC2)N(C)C(=O)[C@H](C2CCCCC2)N(C)C(=O)C2(CCCC2)NC(=O)[C@H](Cc2ccc(C#N)nc2)N(C)C(=O)[C@H](CCc2ccc(C(F)(F)F)c(Cl)c2)NC(=O)CN(C)C(=O)[C@H](CC2CCCCC2)N(C)C(=O)CN(C)C(=O)CN(C)C1=O [US20240148821, Compound 2169] ([NMeL]I[Sar][Sar][NMeCha][Sar][hPhe(3-Cl-4-CF3)][X134][Ac5c][NMeChg][NMeD]-Piperidide; lactam N-11)	6.1 nM
CC[C@H](C)[C@@H]1NC(=O)[C@H](CC(C)C)N(C)C(=O)C[C@@H](C(=O)N2CCCCC2)N(C)C(=O)[C@H](C2CCCCC2)N(C)C(=O)C2(CCCC2)NC(=O)[C@H](Cc2ccc(O)c(F)c2)N(C)C(=O)[C@H](CCc2ccc(C(F)(F)F)c(Cl)c2)NC(=O)CN(C)C(=O)[C@H](CC2CCCCC2)N(C)C(=O)CN(C)C(=O)CN(C)C1=O [US20240148821, Compound 2170] ([NMeL]I[Sar][Sar][NMeCha][Sar][hPhe(3-Cl-4-CF3)][NMeTyr(3-F)][Ac5c][NMeChg][NMeD]-Piperidide; lactam N-11)	69 nM
CC[C@H](C)[C@@H]1NC(=O)[C@H](CC(C)C)N(C)C(=O)C[C@@H](C(=O)N2CCCCC2)N(C)C(=O)[C@H](C2CCCCC2)N(C)C(=O)C2(CCCC2)NC(=O)CN(CCCCN)C(=O)[C@H](CCc2ccc(C(F)(F)F)c(Cl)c2)NC(=O)CN(C)C(=O)[C@H](CC2CCCCC2)N(C)C(=O)CN(C)C(=O)CN(C)C1=O [US20240148821, Compound 2186] ([NMeL]I[Sar][Sar][NMeCha][Sar][hPhe(3-Cl-4-CF3)][Nlys][Ac5c][NMeChg][NMeD]-Piperidide; lactam N-11)	7.5 nM

More lines, in order of falling IC50, values ahead:

IC50	SMILES
91 nM	CC[C@H](C)[C@@H]1NC(=O)[C@H](CC(C)C)N(C)C(=O)C[C@@H](C(=O)N2CCCCC2)N(C)C(=O)[C@H](CC(C)C)N(C)C(=O)C2(CCCC2)NC(=O)[C@@H]2C[C@H](OCc3ccccc3Cl)CN2C(=O)[C@H](CCc2ccc(C(F)(F)F)c(F)c2)NC(=O)CN(C)C(=O)[C@H](CC2CCCCC2)N(C)C(=O)CN(C)C(=O)CN(C)C1=O [US20240148821, Compound 2132] ([NMeL]I[Sar][Sar][NMeCha][Sar][hPhe(3-F,4-CF3)][cisHyp](X87)[Ac5c][NMeL][NMeD]-Piperidide; lactam N-11)
88 nM	CC[C@H](C)[C@@H]1NC(=O)[C@H](CC(C)C)N(C)C(=O)C[C@@H](C(=O)N2CCCCC2)N(C)C(=O)[C@H](CC(C)C)N(C)C(=O)C2(CCCC2)NC(=O)[C@@H]2C[C@H](OCc3ccc(OC(F)F)cc3)CN2C(=O)[C@H](CCc2ccc(C(F)(F)F)c(F)c2)NC(=O)CN(C)C(=O)[C@H](CC2CCCCC2)N(C)C(=O)CN(C)C(=O)CN(C)C1=O [US20240148821, Compound 2135] ([NMeL]I[Sar][Sar][NMeCha][Sar][hPhe(3-F,4-CF3)][cisHyp](X57)[Ac5c][NMeL][NMeD]-Piperidide; lactam N-11)
69 nM	CC[C@H](C)[C@@H]1NC(=O)[C@H](CC(C)C)N(C)C(=O)C[C@@H](C(=O)N2CCCCC2)N(C)C(=O)[C@H](CC(C)C)N(C)C(=O)C2(CCCC2)NC(=O)[C@@H]2C[C@H](OCc3ccccc3C)CN2C(=O)[C@H](CCc2ccc(C(F)(F)F)c(F)c2)NC(=O)CN(C)C(=O)[C@H](CC2CCCCC2)N(C)C(=O)CN(C)C(=O)CN(C)C1=O [US20240148821, Compound 2137] ([NMeL]I[Sar][Sar][NMeCha][Sar][hPhe(3-F,4-CF3)][cisHyp](oXylylene)[Ac5c][NMeL][NMeD]-Piperidide; lactam N-11)
39 nM	CC[C@H](C)[C@@H]1NC(=O)[C@H](CC(C)C)N(C)C(=O)C[C@@H](C(=O)N2CCCCC2)N(C)C(=O)[C@H](CC(C)C)N(C)C(=O)C2(CCCC2)NC(=O)[C@@H]2C[C@H](OCc3cccc(OC)c3)CN2C(=O)[C@H](CCc2ccc(C(F)(F)F)c(F)c2)NC(=O)CN(C)C(=O)[C@H](CC2CCCCC2)N(C)C(=O)CN(C)C(=O)CN(C)C1=O [US20240148821, Compound 2136] ([NMeL]I[Sar][Sar][NMeCha][Sar][hPhe(3-F,4-CF3)][cisHyp](X94)[Ac5c][NMeL][NMeD]-Piperidide; lactam N-11)
12 nM	CC[C@H](C)[C@@H]1NC(=O)[C@H](CC(C)C)N(C)C(=O)C[C@@H](C(=O)N2CCCCC2)N(C)C(=O)[C@H](CC(C)C)N(C)C(=O)C2(CCCC2)NC(=O)[C@@H]2C[C@@H](OCc3ccc(Cl)cc3)CN2C(=O)[C@H](CCc2ccc(C(F)(F)F)c(F)c2)NC(=O)CN(C)C(=O)[C@H](CC2CCCCC2)N(C)C(=O)CN(C)C(=O)CN(C)C1=O [US20240148821, Compound 2133] ([NMeL]I[Sar][Sar][NMeCha][Sar][hPhe(3-F,4-CF3)][Hyp](Benzyl(4-Cl))[Ac5c][NMeL][NMeD]-Piperidide; lactam N-11)
8.6 nM	CC[C@H](C)[C@@H]1NC(=O)[C@H](CC(C)C)N(C)C(=O)C[C@@H](C(=O)N2CCCCC2)N(C)C(=O)[C@H](CC(C)C)N(C)C(=O)C2(CCCC2)NC(=O)[C@@H]2C[C@@H](OCc3ccccc3Cl)CN2C(=O)[C@H](CCc2ccc(C(F)(F)F)c(F)c2)NC(=O)CN(C)C(=O)[C@H](CC2CCCCC2)N(C)C(=O)CN(C)C(=O)CN(C)C1=O [US20240148821, Compound 2138] ([NMeL]I[Sar][Sar][NMeCha][Sar][hPhe(3-F,4-CF3)][Hyp](X87)[Ac5c][NMeL][NMeD]-Piperidide; lactam N-11)
